Measurements reported in the supplement of paper PMC10331698.
± gives the standard deviation of the averaged measurements.

Tests used:
Assay in all cases: level (log10 ratio to DMSO vehicle control); higher = higher biomarker level / cell amount than vehicle control
[1] = compound: CO[Si](C)(CCC(F)(F)C(F)(F)C(F)(F)C(F)(F)C(F)(F)C(F)(F)F)OC [Dimethoxymethyl((perfluorohexyl)ethyl)silane] (in DMSO)
Description: (§1)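 BioMAP Diversity Plus panel of 12 human primary cell co-culture systems (3C, 4H, LPS, SAg, BT, BF4T, BE3C, CASM3C, HDF3CGF, KF3CT, MyoF, Mphg). Compounds were added 1 h before stimulation and left for 24 h (MyoF 48 h; BT 72 h for soluble read-outs or 6 d for IgG). Biomarkers were read by ELISA, cytotoxicity by SRB, PBMC viability and proliferation by Alamar Blue. Each well value was divided by the mean of 8 DMSO control wells on the same plate and log10 transformed; duplicate blinded samples were tested at 4 concentrations.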

[2] = compound: O=C(O)C(F)(F)C(F)(F)C(F)(F)C(F)(F)C(F)(F)C(F)(F)C(F)(F)C(F)(F)C(F)(F)C(F)(F)F [Perfluoroundecanoic acid] (in DMSO); conditions: 6700 nM
Description: as §1

[3] = compound: O=S(=O)(O)CCC(F)(F)C(F)(F)C(F)(F)C(F)(F)C(F)(F)C(F)(F)C(F)(F)C(F)(F)F [8:2 Fluorotelomer sulfonic acid] (in DMSO)
Description: as §1

[4] = compound: O=S(=O)(O)C(F)(F)C(F)(F)C(F)(F)C(F)(F)C(F)(F)C(F)(F)C(F)(F)F [Perfluoroheptanesulfonic acid] (in DMSO)
Description: as §1

[5] = compound: NS(=O)(=O)C(F)(F)C(F)(F)C(F)(F)C(F)(F)C(F)(F)C(F)(F)C(F)(F)C(F)(F)F [Perfluorooctanesulfonamide] (in DMSO)
Description: as §1

[6] = compound: O=C(O)C(F)(F)C(F)(F)C(F)(F)OC(F)(F)F [Perfluoro(4-methoxybutanoic) acid] (in DMSO)
Description: as §1

[7] = compound: O=C(O)C=C(C(F)(F)F)C(F)(F)F [3,3-Bis(trifluoromethyl)-2-propenoic acid] (in DMSO)
Description: as §1

Test System	level (log10) ([1]; 6700 nM)	level (log10) ([1]; 20000 nM)	level (log10) [2]	level (log10) ([3]; 6700 nM)	level (log10) ([3]; 20000 nM)	level (log10) ([3]; 60000 nM)	level (log10) ([4]; 1500 nM)	level (log10) ([4]; 4400 nM)	level (log10) ([4]; 13000 nM)	level (log10) ([4]; 40000 nM)	level (log10) ([5]; 6700 nM)	level (log10) ([5]; 20000 nM)	level (log10) ([6]; 6700 nM)	level (log10) ([6]; 20000 nM)	level (log10) ([6]; 60000 nM)	level (log10) ([7]; 6700 nM)	level (log10) ([7]; 20000 nM)	level (log10) ([7]; 60000 nM)
HDF3CGF:CXCL8/IL-8	-0.0055 ± 0.0035	0.01 ± 0.0028	0.013 ± 0.0028	-0.0145 ± 0.0064	-0.0045 ± 0.0035	-0.0015 ± 0.026	0.0125 ± 0.005	-0.0115 ± 0.005	0.008 ± 0.0042	0.0065 ± 0.026	0.004 ± 0.0085	-0.204 ± 0.11	0.005 ± 0.0057	0.0015 ± 0.00071	0.008	0.008 ± 0.0014	-0.001	0.022 ± 0.011
HDF3CGF:PAI-I	-0.0035 ± 0.0092	0.0105 ± 0.015	-0.011 ± 0.0057	0.018 ± 0.034	-0.002 ± 0.021	0.0015 ± 0.0078	0.02 ± 0.073	0.0135 ± 0.049	-0.0315 ± 0.046	-0.0325 ± 0.011	0.005 ± 0.033	-0.45 ± 0.26	-0.009 ± 0.0042	-0.0135 ± 0.0078	-0.001 ± 0.014	-0.0265 ± 0.015	-0.069 ± 0.0099	-0.153 ± 0.025
HDF3CGF:TIMP-1	-0.023 ± 0.027	-0.0285 ± 0.022	0.0385 ± 0.043	0.0375 ± 0.0064	0.0435 ± 0.037	-0.0365 ± 0.077	-0.004 ± 0.013	-0.001 ± 0.071	-0.002 ± 0.045	0.012 ± 0.1	0.065 ± 0.068	-0.138 ± 0.15	-0.0005 ± 0.035	0.0105 ± 0.067	0.0195 ± 0.042	-0.0935 ± 0.049	-0.125 ± 0.065	-0.0675 ± 0.013
lMphg:CD69	-0.0205 ± 0.018	-0.0435 ± 0.037	-0.048 ± 0.083	-0.0695 ± 0.023	-0.059 ± 0.0028	-0.173 ± 0.025	-0.014 ± 0.055	-0.008 ± 0.027	-0.0145 ± 0.00071	-0.0155 ± 0.018	-0.0435 ± 0.052	-0.11 ± 0.037	-0.0165 ± 0.047	-0.0145 ± 0.071	0.005 ± 0.099	-0.069 ± 0.024	-0.0915 ± 0.0078	-0.0275 ± 0.067
KF3CT:TIMP-2	-0.004 ± 0.028	0.0035 ± 0.011	0.0125 ± 0.012	-0.033 ± 0.0042	0.0075 ± 0.0064	0.0225 ± 0.0021	-0.0225 ± 0.013	-0.0035 ± 0.03	-0.0195 ± 0.016	0.0105 ± 0.0021	-0.0275 ± 0.012	-0.06 ± 0.021	-0.0015 ± 0.005	0.007 ± 0.0042	0.008 ± 0.0071	0.006 ± 0.048	-0.016 ± 0.021	0.039 ± 0.052
lMphg:IL-1alpha	-0.032 ± 0.0014	0.0125 ± 0.073	0.022 ± 0.045	-0.019 ± 0.014	-0.011 ± 0.028	-0.035 ± 0.05	0.0075 ± 0.036	-0.0045 ± 0.028	0 ± 0.042	0.073 ± 0.044	0.053 ± 0.05	0.228 ± 0.028	-0.051 ± 0.018	-0.0345 ± 0.029	0.027 ± 0.068	-0.073 ± 0.068	-0.0565 ± 0.052	-0.043 ± 0.075
HDF3CGF:M-CSF	-0.039 ± 0.0028	-0.02 ± 0.025	-0.0425 ± 0.015	-0.0035 ± 0.056	-0.014 ± 0.038	-0.0685 ± 0.04	-0.0025 ± 0.011	0.0075 ± 0.019	0.003 ± 0.016	0 ± 0.034	-0.0605 ± 0.012	-0.507 ± 0.07	-0.0135 ± 0.0035	-0.0075 ± 0.005	0.0115 ± 0.039	-0.0595 ± 0.0078	-0.072 ± 0.042	-0.051 ± 0.014
CASM3C:IL-6	-0.0225 ± 0.00071	0.013 ± 0.051	0.0025 ± 0.0092	0.0025 ± 0.029	-0.0075 ± 0.0064	-0.0005 ± 0.018	0.021 ± 0.05	-0.029 ± 0.0014	-0.0305 ± 0.026	0.011 ± 0.088	-0.0275 ± 0.018	-0.023 ± 0.014	-0.0215 ± 0.015	-0.0205 ± 0.016	-0.001 ± 0.031	-0.097 ± 0.045	-0.148 ± 0.0071	-0.189 ± 0.026
HDF3CGF:TIMP-2	0.002 ± 0.027	-0.03 ± 0.0014	0.009 ± 0.0042	-0.003 ± 0.016	-0.023 ± 0.016	-0.0475 ± 0.022	-0.0185 ± 0.0064	-0.0395 ± 0.029	-0.0115 ± 0.028	-0.045 ± 0.0014	-0.0545 ± 0.0021	-0.102 ± 0.044	0.019 ± 0.025	0.029 ± 0.055	0.005 ± 0.057	-0.0175 ± 0.013	-0.0595 ± 0.028	-0.082 ± 0.03
MyoF:Collagen I	-0.0075 ± 0.0064	0.007 ± 0.0014	-0.421 ± 0.0092	0.004 ± 0.0042	-0.0265 ± 0.026	-0.024 ± 0.0071	-0.0035 ± 0.0021	0.0135 ± 0.005	-0.009 ± 0.0085	0.0105 ± 0.011	-0.018 ± 0.014	-0.236 ± 0.0028	-0.0165 ± 0.0078	-0.013 ± 0.0028	-0.011 ± 0.0071	-0.031 ± 0.0057	-0.046 ± 0.021	-0.055 ± 0.04
HDF3CGF:Proliferation 72hr	0.02 ± 0.011	0.007 ± 0.037	-0.557 ± 0.11	0.0275 ± 0.044	0.0785 ± 0.06	0.107 ± 0.0014	-0.042 ± 0.088	-0.02 ± 0.031	0.076 ± 0.021	0.107 ± 0.0042	0.0105 ± 0.036	-0.58 ± 0.15	-0.003 ± 0.047	0.0295 ± 0.0021	-0.003 ± 0.031	-0.0325 ± 0.021	-0.086 ± 0.069	-0.24 ± 0.066
3C:CD142/Tissue Factor	0.015 ± 0.02	0.021 ± 0.033	-0.008 ± 0.016	-0.018 ± 0.065	0.001 ± 0.052	-0.0295 ± 0.046	0.0375 ± 0.011	0.021 ± 0.031	0.048 ± 0.048	0.0665 ± 0.1	-0.05 ± 0.017	-0.033 ± 0.031	0.0125 ± 0.077	0.013 ± 0.095	-0.021 ± 0.12	0.0445 ± 0.018	-0.022 ± 0.037	-0.138 ± 0.052
HDF3CGF:MMP-1	-0.0165 ± 0.018	-0.005 ± 0.042	-0.004 ± 0.0057	0.0205 ± 0.012	-0.017 ± 0.028	-0.0835 ± 0.036	0.0235 ± 0.013	0.013 ± 0.014	0.0205 ± 0.018	0.009 ± 0.024	0.0145 ± 0.026	-0.206 ± 0.096	-0.0015 ± 0.015	-0.015 ± 0.0028	-0.0235 ± 0.0021	-0.015 ± 0.0014	-0.013 ± 0.017	-0.001 ± 0.0099
MyoF:Collagen III	0.0175 ± 0.019	-0.011 ± 0.011	-0.3895 ± 0.00071	-0.008 ± 0.017	-0.04 ± 0.031	-0.0355 ± 0.023	-0.0035 ± 0.022	0.002 ± 0.0085	-0.0195 ± 0.013	-0.006 ± 0.025	-0.014 ± 0.0099	-0.242 ± 0.023	-0.006 ± 0.0071	0.0015 ± 0.015	0.008 ± 0.0057	-0.021 ± 0.0014	-0.0335 ± 0.00071	-0.064 ± 0.011
KF3CT:uPA	0.0015 ± 0.0092	-0.015 ± 0.0028	0.0125 ± 0.018	0.007 ± 0.0042	0.006 ± 0.024	0.012 ± 0.016	0.008	-0.0165 ± 0.00071	-0.0195 ± 0.005	-0.0055 ± 0.0021	0.0165 ± 0.0064	-0.093 ± 0.0014	-0.0065 ± 0.005	-0.0175 ± 0.019	-0.0055 ± 0.011	0.027 ± 0.02	0.0275 ± 0.028	0.0325 ± 0.0021
